Patent publication US11470848B2, “Consortium of (carbamate) thiodicarb-resistant and (pyrethroid) biphenthrin-resistant bacteria and use thereof in liquid fertilizers” (priority 2018, dated 2022)
Where two headings read alike, the source gives them in different places.

Tests used:
Format in all cases: cell-based
[1] = test system: Clostridium pasteuranium; assay: Stagewise adaptation on growth media with thiodicarb / bifenthrin, mortality; settings: for Resistant to: (FINAL): after the selective process, 40 stages
Experimental: (§1) Bacteria strains, nitrifiers, phosphorus solubilizers and antagonists for pathogens: • a) Azotobacter vinelandii • b) Bacillus megaterium • c) Bacillus subtillis • d) Bacillus thuringiensis • e) Clostridium pasteuranium • f) Rhizobium Preparation for Stage Development • 1. Glass material is sterilized in an autoclave. • 2. The required amount of growth media is prepared, DFA Agar, Malt Agar (Corn Agar) and (PDA) to obtain viable colonies. • 3. Lethal dose (LD) applied to a hectare is established, for thiodicarb as well as bifenthrin. 10 Petri dishes are prepared with 0.1 LD of thiodicarb of bifenthrin. Dishes are incubated at 25° C. for 72 hours with cold light.
(§2) Methodology • a. Petri dishes are placed inside the laminar flow chamber along with the diluted samples, to seed microorganisms in the dishes, a one ml sample of the strain is taken with an automated pipette, 10^−1 and 10^−2 solutions are performed and each solution is homogenized. • b. Having the petri dishes with the sterile and cold growth media, it is homogenized with 6 right to left movements, 6 clockwise movements, 6 counterclockwise movements and 6 front to back movements over a flat horizontal surface until the inoculum is completely integrated into the media, stand until it solidifies and each dish is covered with parafilm to avoid contamination during incubation. • c. Dishes with thiodicarb and Bifenthrin are placed inside the incubator at 25° C. for 72 hours with a cold light lamp. • d. Inoculated dishes are incubated for 72 hours and the bacteria growth will be recorded, the product concentration impact is determined over the plate growth (12 hours of incubation). • e. The residual impact of the product is reviewed after 7 days in the malt agar and PDA agar medias. • f. If there is no growth over 10%, the process is repeated until a mortality under 90% is obtained. • g. The colony diameter is determined using a graduated ruler, data is recorded subtracting the diameter of the seeded dish, from which the effect over the mycelial growth will be determined compared to the control (not poisoned MA, denominated as percentage of inhibition of radial growth (PIRG %). • h. Progress is recorded daily and after 7 days analysis of an acceptable coverage is performed, if not, the procedure is repeated as many times as required. • i. From the 10 Petri dishes for each microorganism, the one with the lowest mortality is the one that will continue with the following study. • j. The study is performed again using this percentage until coverage increases and so on, the addition of thiodicarb and bifenthrin is alternated with the LD in intervals of 0.1 LD; all these experiments have been designed with the experimental strains and a control. • k. With the data obtained from the bacterial growth, the percentage of inhibition of gradual growth is obtained, the data is transformed for its analysis with the expression 2 arc sin. A two-way classification analysis of variance is applied and later the Turkey test is performed using a 5% probability.
(§3) Characteristics for this procedure were recorded during all stages through the following indicators: • a. Growth speed • b. Percentage of inhibition measured in Number of CFU/mm • c. Percentage of poison resistance
(§4) For each species, stages analyzing times required to cover the entire field were performed. Once this time was determined, they were left to rest for 10 days to be later subject to the following protocol: […]

[2] = test system: Bacillus megaterium; assay: as above; settings: for Resistant to: (FINAL): after the selective process, 40 stages
Experimental: as §1
as §2, with “If there is no growth over 10%, the process is repeated until a mortality under 90% is obtained. • g.” left out, “The study is performed again using this percentage until coverage increases and so on, the addition of thiodicarb and bifenthrin is alternated with the LD in intervals of 0.1 LD; all these experiments have been designed with the experimental strains and a control. • k. With the data obtained from the bacterial growth, the percentage of inhibition of gradual growth is obtained, the data is transformed for its analysis with the expression 2 arc sin. A two-way classification analysis of variance is applied and later the Turkey test is performed using a 5% probability.” left out
(§5) Characteristics for this procedure were recorded during all stages through the following indicators: • a. […] Percentage of inhibition measured in Number of CFU/mm • c. […]
as §4

[3] = test system: Bacillus thuringiensis; assay: as above; settings: for Resistant to: (FINAL): after the adaptation process, 48 stages
Experimental: as §1, §2, §3, §4

[4] = test system: Rhizobium sp; assay: as above; settings: for Resistant to: (FINAL): after the adaptation process, 40 stages
Experimental: as §1
(§6) Methodology • a. Petri dishes are placed inside the laminar flow chamber along with the diluted samples, to seed microorganisms in the dishes, a one ml sample of the strain is taken with an automated pipette, 10^−1 and 10^−2 solutions are performed and each solution is homogenized. • b. […] Inoculated dishes are incubated for 72 hours and the bacteria growth will be recorded, the product concentration impact is determined over the plate growth (12 hours of incubation). • e. […] The colony diameter is determined using a graduated ruler, data is recorded subtracting the diameter of the seeded dish, from which the effect over the mycelial growth will be determined compared to the control (not poisoned MA, denominated as percentage of inhibition of radial growth (PIRG %). • h. Progress is recorded daily and after 7 days analysis of an acceptable coverage is performed, if not, the procedure is repeated as many times as required. • i. From the 10 Petri dishes for each microorganism, the one with the lowest mortality is the one that will continue with the following study. • j. […]
as §5

[5] = test system: Bacillus subtillis; assay: as above; settings: for Resistant to: (FINAL): after the adaptation process, 40 stages
Experimental: as §1, §2, §3, §4

[6] = test system: Azotobacter vinelandii
Experimental: as §1, §6, §5

[7] = bifenthrin 0.9 LD (0.00000042 gr), stages E-37 and E-38
[8] = thiodicarb 0.1 LD (0.0000175 gr), stage E-2
[9] = thiodicarb 0.2 LD (0.000035 gr), stages E-3 and E-4
[10] = thiodicarb 0.9 LD (0.00016 gr), stages E-33 and E-34

Cc1c(COC(=O)[C@@H]2[C@H](/C=C(\Cl)C(F)(F)F)C2(C)C)cccc1-c1ccccc1 (racemic) [bifenthrin, 2-methyl biphenyl-3-ilmetil(2)-(1RS,3RS)-3-(2-chlorine 3,3,3-trifluoropropene)-2,2-dimethyl-cyclo-propane-carboxylate]
Resistant to: (FINAL) [1]: 1 DL of thiodicarb
mortality [1, 7]: 10%
Resistant to: (FINAL) [2]: 1 LD of thiodicarb
mortality ([2]; bifenthrin 0.1 LD (0.00000006 gr), stages E-5 and E-6): 63%
Resistant to: (FINAL) [3]: 1.2 LD of thiodicarb
Resistant to: (FINAL) [4]: 1 DL of thiodicarb
Resistant to: (FINAL) [5]: 1 LD of thiodicarb
mortality ([5]; bifenthrin 0.3 LD (0.00000018 gr), stages E-13 and E-14): 65%
mortality ([6]; bifenthrin 0.2 LD (0.00000012 gr), stages E-7 and E-8): 60%
mortality [6, 7]: 10%

CS/C(C)=N\OC(=O)N(C)SN(C)C(=O)O/N=C(\C)SC [thiodicarb]
Resistant to: (FINAL) [1]: 1 DL of thiodicarb
mortality ([1]; thiodicarb 0.1 LD (0.0000175 gr), stage E-1, until incubation day 72): 87%
mortality [1, 8]: 84%
Resistant to: (FINAL) [2]: 1 LD of thiodicarb
mortality [2, 9]: 65%
Resistant to: (FINAL) [3]: 1.2 LD of thiodicarb
mortality [3, 10]: 30%
mortality ([3]; thiodicarb 1 LD (0.00018 gr), stages E-35 and E-36): 25%
mortality ([3]; thiodicarb 1.2 LD (0.00022 gr), stages E-43 and E-44): 14%
Resistant to: (FINAL) [4]: 1 DL of thiodicarb
mortality [4, 9]: 60%
Resistant to: (FINAL) [5]: 1 LD of thiodicarb
mortality ([5]; thiodicarb 0.1 LD (0.0000175 gr), stage E-1, until day 68 of incubation): 82%
mortality [5, 8]: 80%
mortality [6, 10]: 10%
